According to patent US7833972B2, “Proteins and use thereof” (Takeda Pharmaceutical Company Limited, priority 2002, dated 2010):
Structures can show the parent of a compound that is named as a salt.

Assays:
SST8-5 = assay: Expression of SST8-5 mRNA in 3T3-L1 cell by an insulin sensitizer (TaqMan PCR); type: cell-based, mouse; conditions: 10 μM, 72 hours in differentiation medium in the presence of insulin; 36B4 mRNA internal standard
Description: Analysis of Expression of Novel Secretory or Membrane Protein Gene by an Insulin Sensitizer 3T3-L1 cell was inoculated into 6-well plate at 4×10^5 cells/well of cell number and incubated on DMEM (Invitrogen) medium containing 10% fetal bovine serum (Invitrogen) at 37° C. for 5 days. The medium was exchanged to a differentiation medium [DMEM medium containing 250 nM dexamethasone (Sigma), 0.5 mM 1-methyl-3-isobutyl xanthine (Wako Pure Chemical Industries, Ltd.), 10 μg/ml insulin (Sigma) and 10% fetal bovine serum]. In exchanging the medium to the differentiation medium, pioglitazone hydrochloride (10 μM, Takeda Pharmaceutical Company, Ltd.) which is an insulin sensitizer was added to the medium, and incubated for 72 hours in the presence of insulin. After completing incubation, the medium was washed with PBS (Invitrogen), and the cells were collected. Total RNA was gathered from the collected cells using RNAeasy kit (Qiagen) according to the instructions attached to the kit. Using the gathered total RNA, expression amounts of SST8-5 and mRNA of 36B4 which is used as internal standard were quantified by TaqMan PCR (Applied Biosystems). As a result, the expression amount of SST8-5 increased 2.4-fold by addition of pioglitazone hydrochloride as compared with control (pioglitazone hydrochloride free).

SST20-14 = assay: Expression of SST20-14 mRNA in 3T3-L1 cell by insulin resistance inducing factor (TaqMan PCR); type: cell-based, mouse
Description: Analysis of Expression of Novel Secretory or Membrane Protein Gene by Insulin Resistance Inducing Factor
3T3-L1 cell was inoculated into 6-well plate at 4×10^5 cells/well of cell number and incubated on DMEM (Invitrogen) medium containing 10% fetal bovine serum (Invitrogen) at 37° C. for 5 days. The medium was exchanged to a differentiation medium [DMEM medium containing 250 nM dexamethasone (Sigma), 0.5 mM 1-methyl-3-isobutyl xanthine (Wako Pure Chemical Industries, Ltd.), 10 μg/ml insulin (Sigma) and 10% fetal bovine serum] and further incubated for 24 hours. In exchanging the medium to the differentiation medium, each of TNF-α (Genzyme Techne) at the concentration of 1 nM, 100 pM and 10 pM was added to the medium at the same time. After completing incubation, the medium was washed with PBS (Invitrogen), and the cells were collected. Total RNA was gathered from the collected cells using RNAeasy kit (Qiagen) according to the instructions attached to the kit. Using the gathered total RNA, expression amounts of SST20-14 and mRNA of 36B4 which is used as internal standard were quantified by TaqMan PCR (Applied Biosystems).

3T3-L1 cell = assay: Differentiation of preadipocyte strain 3T3-L1 into mature adipocyte (oil red-O staining of lipid drop accumulation); type: cell-based; conditions: 3T3-L1 cell overexpressing SST20-14 (pCMV-SST20-14, Long form cDNA); differentiation medium 72 hours then 8 days; qualitative, microscopic observation
Description: Analysis of Action for Differentiation of Preadipocyte Strain 3T3-L1 into Mature Adipocyte
3T3-L1 cell was inoculated into 6-well plate at 2×10^5 cells/well of cell number, and incubated on DMEM (Invitrogen) medium containing 10% fetal bovine serum (Invitrogen) at 37° C. for 7 days, incubation solution was suctioned, and the well was washed twice with PBS (Invitrogen), and then 2 ml/well of OPTI-MEM (Invitrogen) was added thereto. OPTI-MEM (100 μl) and FuGENE™6 (10 μl, Roche) were mixed and stood still at room temperature for 5 minutes. Thereto was added […] of construct for expression pCMV-SST20-14 prepared by inserting SST20-14 (Long form) cDNA into EcoRI-HindIII cloning site of pCMV-Tag4A (Sigma) which is an expression plasmid, and the mixed solution was stood still at room temperature for 45 minutes. The solution containing the expression construct was added to the above-mentioned 3T3-L1 cell, and incubated at 37° C. for 6 hours, and then incubated on DMEM medium containing 10% fetal bovine serum at 37° C. for 40 hours. Then, the medium was exchanged to a differentiation medium [DMEM medium containing 250 nM dexamethasone (Sigma), 0.5 mM 1-methyl-3-isobutyl xanthine (Wako Pure Chemical Industries, Ltd.), 10 μg/ml insulin (Sigma) and 10% fetal bovine serum] and incubated for 72 hours. […]

For `CCc1ccc(CCOc2ccc(CC3SC(=O)NC3=O)cc2)nc1` (stereo not shown) [pioglitazone hydrochloride], which “increase of expression amount of SST8-5 as compared with control (pioglitazone hydrochloride free)” value (SST8-5) is on record?
Its value is 2.4 fold.

Which “reduction of expression amount of SST20-14 as compared with control (TNF-α free)” value (SST20-14; 1 nM TNF-α for 24 hours in differentiation medium, 36B4 mRNA internal standard) does the source give for TNF-α here?
The value was “about 70%”.

What about the “change of expression amount of SST20-14 with TNF-α concentration” value (SST20-14; TNF-α 1 nM, 100 pM and 10 pM, 24 hours in differentiation medium) of the same molecule?
The value was “changed depending on added TNF-α concentration”.

B1: SST20-14: mouse white adipose tissue-derived secretory or membrane protein, SEQ ID NO: 2; overexpressed from pCMV-SST20-14 construct (protein, listed as Mus musculus)
chain: MAGSRGLPLLLLVLQLFLGPVLPVRAPVFGRSDTPTLSPEENEFVEEENQPVLVLSSEEPEPGPATVDCPRDCACSQEGVVDCGGIDLREFPGDLPEHTNHLSLQNNQLEKIYPEELSRLQRLETLNLQNNRLTSRGLPEEAFEHLTSLNYLYLANNKLTLAPRFLPNALISVDFAANYLTKIYGLTFGQKPNLRSVYLHNNKLADAGLPDHMFNGSSNVEILILSSNFLRHVPKHLPPALYKLHLKNNKLEKIPPGAFSELSNLRELYLQNNYLTDEGLDNETFWKLSSLEYLDLSSTNLSRVPAGLPRSLVLLHLEKNAIQSVEADVLTPIRNLEYLLLHSNQLQAKGIHPLAFQGLKKLHTVHLYNNALERVPSGLPRRVRTLMILHNQITGIGREDFATTYFLEELNLSYNRITSPQMHRDAFRKLRLLRSLDLSGNRLQTLPPGLPKNVHVLKVKRNELAALARGALAGMAQLRELYLTGNRLRSRALGPRAWVDLAGLQLLDIAGNQLTEVPEGLPPSLEYLYLQNNKISAVPANAFDSTPNLKGIFLRFNKLAVGSVVESAFRRLKHLQVLDIEGNFEFGNGSKDKDEEEEEEEEEEDEEEETR
Which “accumulation of lipid drop as compared with control 3T3-L1 cell” value (3T3-L1 cell) does the source give for B1 here?
The value was “reduced to a half or less”.
